From ChEMBL document CHEMBL4420076, “Amylin and calcitonin receptor agonist” (2017)
Numbered stars: 1 amine (or outer) side, 2 acyl side, 3 side chain; on linkers, the order of the positions; unused ones are H or OH. Side chains are listed from the residue outwards. Peptide text beside a SMILES is read from it. * marks the point of attachment. C20 diacid = O=C(O)CCCCCCCCCCCCCCCCCCC(=O)*; C18 diacid = O=C(O)CCCCCCCCCCCCCCCCC(=O)*; C16 diacid = O=C(O)CCCCCCCCCCCCCCC(=O)*; γGlu = O=C(O)[C@H](CCC(=O)[*:2])N[*:1]

Key:
Rattus norvegicus [1] = assay: Reduction in food intake in Sprague-Dawley rat at 3 nmol/kg measured 0 to 24 hrs post dose relative to control; format: functional; set-up: scale not given: the % may be the effect or the level left
Rattus norvegicus [2] = assay: Reduction in food intake in Sprague-Dawley rat at 3 nmol/kg measured 24 to 48 hrs post dose relative to control; format: functional; set-up: scale not given: the % may be the effect or the level left
[3] = biological target: T1, Amylin receptor AMY3; CALCR/RAMP3 (Homo sapiens, UniProt O60896+P30988); assay: Agonist activity at human amylin receptor expressed in BHK570 cells co-expressing RAMP3 assessed as increase in intracellular cAMP concentration incubated for 3 hrs in absence of albumin by CRE luciferase reporter gene assay; format: functional, cell-based
T1 sequence (P30988 whole entry): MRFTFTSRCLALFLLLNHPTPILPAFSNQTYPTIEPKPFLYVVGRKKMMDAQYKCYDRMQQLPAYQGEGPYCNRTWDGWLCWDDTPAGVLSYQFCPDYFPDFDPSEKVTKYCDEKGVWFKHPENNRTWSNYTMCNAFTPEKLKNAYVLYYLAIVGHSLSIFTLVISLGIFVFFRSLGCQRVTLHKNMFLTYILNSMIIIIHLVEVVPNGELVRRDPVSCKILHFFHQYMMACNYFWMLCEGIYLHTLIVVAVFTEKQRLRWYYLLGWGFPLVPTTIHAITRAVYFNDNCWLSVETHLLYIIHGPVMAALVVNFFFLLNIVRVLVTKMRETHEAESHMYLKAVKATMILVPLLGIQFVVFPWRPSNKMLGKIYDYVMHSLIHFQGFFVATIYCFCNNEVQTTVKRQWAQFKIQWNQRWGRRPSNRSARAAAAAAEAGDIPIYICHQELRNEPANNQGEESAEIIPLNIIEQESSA
T1 sequence (O60896 whole entry): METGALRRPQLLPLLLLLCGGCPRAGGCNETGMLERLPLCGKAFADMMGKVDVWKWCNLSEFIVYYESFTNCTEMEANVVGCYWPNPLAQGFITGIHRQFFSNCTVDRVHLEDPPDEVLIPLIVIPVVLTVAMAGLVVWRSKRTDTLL

Calcitonin receptor [4] = biological target: T2, Calcitonin receptor (Homo sapiens, UniProt P30988); assay: Agonist activity at human calcitonin receptor expressed in BHK570 cells assessed as increase in intracellular cAMP concentration incubated for 3 hrs in absence of albumin by CRE luciferase reporter gene assay; format: functional, cell-based
T2 sequence (P30988 whole entry): T1 sequence (P30988 whole entry)

Calcitonin receptor [5] = biological target: T2, Calcitonin receptor; assay: Agonist activity at human calcitonin receptor expressed in BHK570 cells assessed as increase in intracellular cAMP concentration incubated for 3 hrs in presence of 10% FBS by CRE luciferase reporter gene assay; format: functional, cell-based
[6] = Stability in pH 7.5 buffer assessed as lag time for fibril formation at 1 uM by Thioflavin T based fluorescence assay; format: physicochemical; conditions: pH 7.5, 1 µM
[7] = Stability in pH 7.5 buffer assessed as compound recovery at 1 uM by Thioflavin T based fluorescence assay; format: physicochemical; conditions: read-out: Drug recovery
[8] = Solubility in 100 mM glycylglycine buffer at pH 3.0 incubated for 18 hrs by UPLC analysis; format: physicochemical
[9] = Solubility in 100 mM glycylglycine buffer at pH 4.0 incubated for 18 hrs by UPLC analysis; format: physicochemical
[10] = Solubility in 100 mM glycylglycine buffer at pH 5.0 incubated for 18 hrs by UPLC analysis; format: physicochemical
[11] = Solubility in 100 mM bistrispropane buffer at pH 7.5 incubated for 18 hrs by UPLC analysis; format: physicochemical
[12] = Solubility in 100 mM bistrispropane buffer at pH 8.0 incubated for 18 hrs by UPLC analysis; format: physicochemical
[13] = biological target: T1, Amylin receptor AMY3; CALCR/RAMP3; assay: Displacement of [125I]-labeled rat amylin from human amylin receptor expressed in BHK tkts13 whole cells co-expressing RAMP3 incubated for 60 mins by scintillation proximity assay; format: cell-based
Calcitonin receptor [14] = biological target: T2, Calcitonin receptor; assay: Displacement of [125I]-labeled human calcitonin from human calcitonin receptor expressed in BHK tkts13 whole cells incubated for 60 mins by scintillation proximity assay; format: cell-based
[15] = Solubility in 100 mM bistrispropane buffer at pH 6.0 incubated for 18 hrs by UPLC analysis; format: physicochemical
[16] = Solubility in 100 mM bistrispropane buffer at pH 6.5 incubated for 18 hrs by UPLC analysis; format: physicochemical
[17] = Solubility in 100 mM bistrispropane buffer at pH 7.0 incubated for 18 hrs by UPLC analysis; format: physicochemical
[18] = biological target: T1, Amylin receptor AMY3; CALCR/RAMP3; assay: Agonist activity at human amylin receptor expressed in BHK570 cells co-expressing RAMP3 assessed as increase in intracellular cAMP concentration incubated for 3 hrs in presence of 10% FBS by CRE luciferase reporter gene assay; format: functional, cell-based

Compound	Activity (Rattus norvegicus [1])	Activity (Rattus norvegicus [2])	EC50 [3]	EC50 (Calcitonin receptor [4])	EC50 (Calcitonin receptor [5])	Time [6]	remaining at 1 µM [7]	solubility at 18 h [8]	solubility at 18 h [9]	solubility at 18 h [10]	solubility at 18 h [11]	solubility at 18 h [12]	IC50 [13]	IC50 (Calcitonin receptor [14])	solubility at 18 h [15]	solubility at 18 h [16]	solubility at 18 h [17]	EC50 [18]
CC(C)C[C@H](NC(=O)CNC(=O)[C@H](CO)NC(=O)[C@H](C)N)C(=O)N[C@@H](CO)C(=O)N[C@H](C(=O)N[C@@H](C)C(=O)N[C@@H](C)C(=O)N[C@@H](CC(C)C)C(=O)NCC(=O)N[C@@H](CCCNC(=N)N)C(=O)N[C@@H](CC(C)C)C(=O)N[C@@H](CO)C(=O)N[C@@H](CCC(N)=O)C(=O)N[C@@H](CCC(=O)O)C(=O)N[C@@H](CC(C)C)C(=O)N[C@@H](Cc1cnc[nH]1)C(=O)N[C@@H](CCC(=O)O)C(=O)N[C@@H](CC(C)C)C(=O)N[C@@H](CCC(N)=O)C(=O)N[C@H](C(=O)N[C@@H](Cc1ccc(O)cc1)C(=O)N1CCC[C@H]1C(=O)N[C@@H](CCCNC(=N)N)C(=O)N[C@H](C(=O)N[C@@H](CCC(=O)O)C(=O)N[C@H](C(=O)NCC(=O)N[C@@H](CO)C(=O)N[C@@H](CCCCNC(=O)CC[C@H](NC(=O)CCCCCCCCCCCCCCCCCCC(=O)O)C(=O)O)C(=O)N[C@H](C(=O)N[C@@H](Cc1ccc(O)cc1)C(N)=O)[C@@H](C)O)[C@@H](C)O)[C@@H](C)O)[C@@H](C)O)[C@@H](C)O (H-ASGLSTAALGRLSQELHELQTYPRTETGSK([γGlu-C20 diacid])TY-NH2)	4%	-5%	0.068 nM	0.036 nM	0.113 nM	0.3 h	0%	≥ 200 µM	≥ 200 µM	≥ 200 µM	≥ 200 µM	≥ 200 µM	5.45 nM	1.27 nM				
CC(C)C[C@H](NC(=O)[C@H](CCC(=O)O)NC(=O)[C@H](Cc1cnc[nH]1)NC(=O)[C@H](CC(C)C)NC(=O)[C@H](CCC(=O)O)NC(=O)[C@H](C)NC(=O)[C@H](CO)NC(=O)[C@H](CC(C)C)NC(=O)[C@H](CCCNC(=N)N)NC(=O)CNC(=O)[C@H](CC(C)C)NC(=O)[C@@H](NC(=O)[C@H](C)NC(=O)[C@@H](NC(=O)[C@H](CO)NC(=O)[C@H](CC(C)C)NC(=O)[C@H](CCC(=O)O)NC(=O)[C@@H]1CCCN1C(=O)[C@H](C)NC(=O)[C@H](CCC(=O)O)NC(=O)CCCCCCCCCCCCCCCCC(=O)O)[C@@H](C)O)C(C)C)C(=O)N[C@@H](C)C(=O)N[C@H](C(=O)N[C@@H](CC(C)C)C(=O)N1CCC[C@H]1C(=O)N[C@@H](CCCNC(=N)N)C(=O)N[C@H](C(=O)N[C@@H](CCC(=O)O)C(=O)N[C@H](C(=O)NCC(=O)N1CCC[C@H]1C(=O)N[C@@H](CCC(=O)O)C(=O)N[C@@H](CO)C(=O)N1CCC[C@H]1C(N)=O)[C@@H](C)O)[C@@H](C)O)[C@@H](C)O ({C18 diacid}-EAPELSTAVLGRLSAELHELATLPRTETGPESP-NH2)	52%	0%	0.01 nM	0.007 nM				≥ 200 µM	≥ 200 µM	≥ 200 µM	≥ 200 µM	≥ 200 µM	0.352 nM	0.309 nM	≥ 200 µM	≥ 200 µM	≥ 200 µM	
CC(C)C[C@H](NC(=O)[C@H](C)NC(=O)[C@H](C)NC(=O)[C@@H](NC(=O)[C@H](CO)NC(=O)[C@H](CC(C)C)NC(=O)[C@H](CCC(=O)O)NC(=O)[C@H](CO)NC(=O)[C@H](C)NC(=O)CC[C@H](NC(=O)CCCCCCCCCCCCCCCCCCC(=O)O)C(=O)O)[C@@H](C)O)C(=O)NCC(=O)N[C@@H](CCCNC(=N)N)C(=O)N[C@@H](CC(C)C)C(=O)N[C@@H](CO)C(=O)N[C@@H](C)C(=O)N[C@@H](CCC(=O)O)C(=O)N[C@@H](CC(C)C)C(=O)N[C@@H](Cc1cnc[nH]1)C(=O)N[C@@H](CCC(=O)O)C(=O)N[C@@H](CC(C)C)C(=O)N[C@@H](C)C(=O)N[C@H](C(=O)N[C@@H](CC(C)C)C(=O)N1CCC[C@H]1C(=O)N[C@@H](Cc1cnc[nH]1)C(=O)N[C@H](C(=O)N[C@@H](CCC(=O)O)C(=O)N[C@H](C(=O)NCC(=O)N[C@@H](CO)C(=O)NCC(=O)N[C@@H](CO)C(=O)N1CCC[C@H]1C(N)=O)[C@@H](C)O)[C@@H](C)O)[C@@H](C)O ({C20 diacid-γGlu}-ASELSTAALGRLSAELHELATLPHTETGSGSP-NH2)	55%	62%	0.027 nM	0.018 nM	0.022 nM			≥ 200 µM	≥ 200 µM	≥ 200 µM	≥ 200 µM	≥ 200 µM	0.608 nM	0.442 nM	≥ 200 µM	≥ 200 µM	≥ 200 µM	0.185 nM
CC(C)C[C@H](NC(=O)[C@H](C)NC(=O)[C@H](C)NC(=O)[C@@H](NC(=O)[C@H](CO)NC(=O)[C@H](CC(C)C)NC(=O)[C@H](CCC(=O)O)NC(=O)[C@H](CO)NC(=O)[C@H](C)NC(=O)[C@H](CCC(=O)O)NC(=O)CCCCCCCCCCCCCCC(=O)O)[C@@H](C)O)C(=O)NCC(=O)N[C@@H](CCCNC(=N)N)C(=O)N[C@@H](CC(C)C)C(=O)N[C@@H](CO)C(=O)N[C@@H](C)C(=O)N[C@@H](CCC(=O)O)C(=O)N[C@@H](CC(C)C)C(=O)N[C@@H](Cc1cnc[nH]1)C(=O)N[C@@H](CCC(=O)O)C(=O)N[C@@H](CC(C)C)C(=O)N[C@@H](C)C(=O)N[C@H](C(=O)N[C@@H](CC(C)C)C(=O)N1CCC[C@H]1C(=O)N[C@@H](CCCNC(=N)N)C(=O)N[C@H](C(=O)N[C@@H](CCC(=O)O)C(=O)N[C@H](C(=O)NCC(=O)N1CCC[C@H]1C(=O)N[C@@H](CCC(=O)O)C(=O)N[C@@H](CO)C(=O)N1CCC[C@H]1C(N)=O)[C@@H](C)O)[C@@H](C)O)[C@@H](C)O ({C16 diacid}-EASELSTAALGRLSAELHELATLPRTETGPESP-NH2)	63%	9%	0.008 nM	0.004 nM				≥ 200 µM	≥ 200 µM	≥ 200 µM	≥ 200 µM	≥ 200 µM	0.498 nM	0.413 nM	≥ 200 µM	≥ 200 µM	≥ 200 µM	
